The assay relates to mice. Nature of the assay: Forced swim test (FST). Format: in vivo. The settings on record: 1 mg/kg i.p., vs control. On the procedure:
Animals and housing conditions
In all pharmacodynamic in vivo experiments, except for the Barnes maze (BM) task, adult male Albino Swiss (CD-1) mice weighing between 18 and 22 g and purchased from the Animal Breeding Farm of the Faculty of Pharmacy, Jagiellonian University Medical College were used. In BM task, C57BL/6J mice of the same weight (Animalab, Poland) were used.
Animals were housed in cages (10 mice per cage) at a constant temperature of 22 ± 2 °C, humidity of 55 ± 10%, and a light/dark (12:12) cycle (lights on at 7 AM). Before the experiments, the animals had unlimited access to food and water. […]
Briefly, mice were individually placed in a glass cylinder (25 cm high, 10 cm in diameter) containing 11 cm of water maintained at 23–25 °C and were left therein for 6 min. […] The total duration of immobility was measured during the final 4 min of a 6-min test session. […]
The four-plate apparatus (FPT; Bioseb, France) consists of a cage (25 × 18 × 16 cm) that is floored with four rectangular metal plates (11 × 8 cm). […] The number of punished crossings was counted […]
of the closed arms. […] The following parameters were measured in this test: time spent in open arms of the EPM device and the number of entries to open arms. […]

Entries after “also recorded” stand apart in the source; their conditions may differ.

Consider `O[C@H](CNCC1CC1)[C@H](Cc1ccccc1)NC1c2ccccc2-c2ccccc21` [Compound 6], for which the duration of immobility result is given as “reduced immobility; also recorded: mild yet statistically significant antidepressant activity”.

Source of the values: article PMC11796312, “Multifunctional, Fluorene‐Based Modulator of Cholinergic and GABAergic Neurotransmission as a Novel Drug Candidate for Palliative Treatment of Alzheimer's Disease” (Angewandte Chemie (International Ed. in English), 2024).
